Experimental data published in ChEMBL document CHEMBL4831479, “Discovery of Novel Thiophene-arylamide Derivatives as DprE1 Inhibitors with Potent Antimycobacterial Activities” (J Med Chem, 2021).
In brackets after ≈: the same amount, converted by molar mass.

Columns and labels:
[1] = tested on: Mycobacterium tuberculosis; assay: Non-covalent inhibition of DprE1 in PBTZ169-resistant Mycobacterium tuberculosis measured after 7 days by microplate Alamar blue assay; details: time 7.0 day
[2] = tested on: Mycobacterium tuberculosis; assay: Non-covalent inhibition of DprE1 in bedaquiline-resistant Mycobacterium tuberculosis measured after 7 days by microplate Alamar blue assay; details: time 7.0 day

Structure (SMILES) | MIC [1] [µg/mL] | MIC [2] [µg/mL]
CCOC(=O)NC(=O)c1ccsc1NC(=O)c1ccc(C(=O)N2CCCCC2)cc1 | 0.14 (≈ 0.326 µM) | –
COC(=O)NC(=O)c1ccsc1NC(=O)c1ccc(C(=O)N2CCCCC2)cc1 | 0.48 (≈ 1.16 µM) | –
CCOC(=O)NC(=O)c1ccsc1NC(=O)c1ccc(C(=O)N2CCCCC2)c(F)c1 | 0.062 (≈ 0.139 µM) | 0.054 (≈ 0.121 µM)
